# Assay results published in patent publication US9265739B2, “Methods and use of compounds that bind to HER2/neu receptor complex” (The Trustees Of The University Of Pennsylvania, priority 2010, dated 2016).
# Experiments:
# [1] = tested on: HER2 (phosphorylation at Y877); assay: Inhibition of HER2 phosphorylation in HC1 cells (western blot); format: cell-based, human; conditions: serum-starved HC1 cells, inhibitor 1 hour, EGF 50 ng/ml 10 minutes, FIG. 4
# Description: The effect of S22-57 was also examined in the cetuximab-resistant non-small cell lung cancer cell line HC1. Confluent HC1 cells were first serum starved for 24 hours before exposed to inhibitors as indicated for 1 hour. Cells were then stimulated by EGF (50 ng/ml) for 10 minutes. […] Both antibodies were purchased from Cell Signaling.
# T6-17 cells [2] = assay: MTT cell proliferation assay, T6-17 cells; format: cell-based, murine; conditions: indicated doses, three days, FIG. 3
# From the text: (§1) The activity of S22-57 in cell proliferation assays using different cell lines was examined. T6-17 is a murine cell line engineered to express human HER2/neu. […] HBL100 is an immortalized human breast cancer cell line. XHT-1-1A are mouse NIH3T3 cells transformed by Harvey-RAS (XHT-1-1a) previously developed and used (Drebin, et al., Cell 41, 697-706 (1985)). Both HBL100 and XHT-1-1A are used as controls. To measure cell proliferation, we used the modified 3-[4,5-dimethylthiazol-2-yl]-2,5-diphenyl tetrazolium bromide (MTT) assay as previously described (Masuda, et al., Oncogene 25, 7740-7746 (2006)). Cells (2000-5000 cells/well) were seeded in 96-well plates in the presence of inhibitors with different concentration and incubated at 37° C. in a humidified 5% CO2 atmosphere. After 72 h, cells were incubated in fresh medium for another 4 hours before a total of 25 μl of MTT solution (5 mg/ml in PBS) was added to each well, and after 2 h of incubation at 37° C., 100 μl of the extraction buffer (20% w/v SDS, 50% N,N-dimethyl formamide, pH 4.7) was added. After an overnight incubation at 37° C., the optical density at 570 nm was measured using a Tecan ELISA reader. […] Proliferation of cells was measured by the MTT assay.
# T6-17 cells [3] = assay: Soft agar colony growth screening, T6-17 cells; format: cell-based, murine; conditions: soft agar colonies counted on day 21, relative to DMSO control, p<0.05, FIG. 1/2
# Description: (§2) Targeted molecules were screened in vitro for anti-tumor activity using a modified […] growth of transformed cell assay, as described in Fukazawa et al. (1995), Anal. Biochem., 10:83-90. Anchorage-independent growth capability is perhaps the best indicator of the malignant phenotype and is determined by efficiency of cells to form colonies in soft agar (Drebin, et al., Cell 41, 697-706 (1985)). All experiments were conducted in 6 cm dishes in triplicate. Agar bottom layers consisted of 3 ml 0.25% agarose/DMEM (Dulbecco's Modified Eagle Medium) supplemented with 10% FBS (Fetal Bovine Serum), 2 mM L-glutamine, and 100 u/ml Penicillin/1 μg/ml Streptomycin. About 1000-2000 cells T6-17/SK-BR-3 are layered on the top in 1 ml 0.18% agarose/DMEM, 10% FBS, 2 mM L-glutamine, and 100 μ/ml Penicillin/1 μg/ml Streptomycin. Cultures were treated every 3 days with 0.5 ml of supplemented DMEM containing measured amounts of the Her2 inhibitors, or DMSO (dimethyl sulfoxide) alone. On the day before the colonies were counted, the samples were incubated with 1 ml of Hank's Balanced Salt Solution containing 1 mg/ml p-iodonitrotetrazolium violet (INT, Sigma) to stain colonies. The next day, colonies were counted using a 7× achromatic magnifying eyepiece (Bausch and Lomb). Triplicate cultures were counted on day 21 and will be verified by at least two different persons. […]
# HC1 cells = assay: MTT cell proliferation assay, HC1 cells; format: cell-based, human; conditions: indicated doses, three days, FIG. 3
# From the text: as §1
# SK-BR-3 cells = assay: Soft agar colony growth screening, SK-BR-3 cells; format: cell-based; conditions: soft agar colonies counted on day 21, relative to DMSO control, p<0.05, FIG. 1/2
# Description: as §2
compound,measurement,setting,value
O=C(CCc1cc(C(F)(F)F)cc(C(F)(F)F)c1)NN/C=C1\C=C(Cl)C=C(Cl)C1=O [S22-57],EGF-stimulated phosphorylation of HER2 at Y877,[1],inhibited
same,inhibition of proliferation of T6-17 cells,T6-17 cells [2],inhibited T6-17 and HC1 dose-dependently
same,effect on T6-17 cell proliferation (colony growth in culture),T6-17 cells [3],reduced cellular growth in culture relative to DMSO control
same,inhibition of proliferation of HC1 cells,HC1 cells,inhibited T6-17 and HC1 dose-dependently
same,effect on SK-BR-3 cell proliferation (colony growth in culture),SK-BR-3 cells,reduced cellular growth in culture relative to DMSO control
